{
  "source": "paper PMC7948479",
  "about": "“Allostery in the nitric oxide dioxygenase mechanism of flavohemoglobin” (The Journal of Biological Chemistry, 2020)",
  "key": {"[1]": {"biological_target": "flavoHb heme (Fe^2+ / Fe^3+) (Escherichia coli, UniProt P24232, Q53H)", "details": "HisE7 variant; 100 μM CO", "experimental": "(§1) FAD and heme reduction were monitored by following the changes in flavoHb absorbance at 460 and 430 nm, respectively, with stopped-flow rapid mixing of 50 μM NADH and 10 μM flavoHb in N2-purged buffer ([4]). O2, NO, and CO association rate constants were determined by photolyzing 50 μM of the respective ferrous flavoHb species with a 300-ns pulse from a 577-nm laser and by spectrophotometrically following ligand reassociation in O2-, NO-, or CO-saturated buffer unless otherwise indicated ([4], [5]). […] Binding of NO was measured by the change of absorbance at 422 nm by applying a difference extinction coefficient of 0.040 μM^−1 cm^−1. O2 and CO dissociation rate constants were determined by stopped-flow rapid mixing with either CO or NO displacement ([4], [5]). The cuvette path length was 1.0 cm. All reactions were at 20 °C in filtered 100 mM sodium phosphate buffer, pH 7.0, containing 0.3 mM EDTA. Catalase (1000 U/ml) was included in all reactions containing O2 to scavenge H2O2 produced by the NADH oxidase activity of flavoHb and to regenerate O2."}, "[2]": {"biological_target": "flavoHb heme (Fe^2+ / Fe^3+) (Escherichia coli, UniProt P24232)", "experimental": "as §1"}, "[3]": {"biological_target": "flavoHb heme (Fe^2+ / Fe^3+) (Escherichia coli, UniProt P24232, Y29F)", "details": "PheB10 variant; 100 μM CO", "experimental": "as §1"}, "TMAO reductase activity": {"assay": "TMAO reductase activity", "assay_type": "biochemical", "details": "CO 50 μM; AsnF7 variant"}, "E. coli flavoHb-NOD [4]": {"system": "E. coli flavoHb-NOD", "details": "read-out: Ki(CO); cited from earlier work"}, "flavoHb-NOD": {"biological_target": "T1, flavoHb-NOD (Escherichia coli, UniProt P24232)", "T1 construct": "made in house; host or cells: E. coli hmp deletion strain AG103 carrying pUC19hmp", "assay": "H2O2 sensitivity of the flavoHb-NOD", "assay_type": "biochemical", "details": "for protection of flavoHb-NOD against H2O2: resting state, 2 mM ascorbate or 10 µM miconazole", "experimental": "Figure S5. H2O2 sensitivity of the flavoHb-NOD. NOD activity of flavoHb is rapidly lost upon exposure to H2O2 (panel A), and heme absorbance decreases with H2O2 exposure (panel B). The peroxidizable substrate ascorbate and the heme ligand miconazole (6) afford protection thus […]\n(A) FlavoHb (0.1 µM heme) […]\nwas exposed to 0 (○), 50 (◼) or 200 µM H2O2 (●). Catalase (1000 U/mL) was added at various times to terminate reactions, and NOD activity was measured as described under Experimental Procedures. (B) Ferric flavoHb (5 µM heme) was exposed to 200 µM H2O2, and spectra were recorded at 2 min intervals (solid lines) or after a 10 min exposure in the presence of 2 mM ascorbate (dashed line) or 10 µM miconazole (dotted line). Reactions were at 37°C in 50 mM potassium phosphate buffer, pH 7.8, containing 0.1 mM EDTA. Error bars represent the S.D. of […]\n(1 picture or pasted object on this page, not shown here)"}, "E. coli flavoHb-NOD [5]": {"biological_target": "E. coli flavoHb-NOD (Escherichia coli, UniProt P24232)", "assay_type": "biochemical", "set-up": "made in house; host or cells: E. coli hmp deletion strain AG103 carrying pUC19hmp", "description": "We have formulated a steady-state velocity equation for the catalytic cycle with the activating trigger step (KT) (Equation 1).(1) v= Vmax(a) where a=([NO]^2[O2]^2/K1K2K3KTK4)/(1+([O2]/K1)+([O2]^2/K1K2)+(([O2]^2[NO])/K1K2K3)+(([O2]^2[NO])/K1K2K3KT)+(([O2]^2[NO]^2)/K1K2K3KTK4))\n(2) v= Vmax(a)(b) where b=[NO]/(K3+([NO](1+((K2/[O2])(1+([NO]/Ki(NO)))))))\nIn addition, we have introduced a factor and equilibrium constant Ka(O2) for rare situations in which O2 causes an additional NO-independent activation of catalysis possibly by occupying unique binding sites or cavities (Equation 5).\n(§2) NOD activity was measured amperometrically in 100 mM phosphate buffer, pH 7.0, containing 0.3 mM EDTA, 100 μg/ml bovine serum albumin (BSA) (Fraction V), 100 μM NADH, 0.1 μM FAD with NO, O2, and N2 mixtures added as described ([4], [72]). NADH oxidase activity was followed spectrophotometrically at 340 nm in a 1.0-ml cuvette containing 90 mM Tris chloride buffer, pH 8.2, 100 μM NADH, 200 μM O2, 0.1 μM FAD, 100 μg/ml BSA, and 0.3 mM EDTA and incubated at 37 °C. Cytochrome b5 reductase activity was assayed at 37 °C by following the rate of absorbance increase at 555 nm in a 1.0-ml reaction buffered with 90 mM Tris chloride, pH 8.2, and containing 10 μM ferric cytochrome b5, 200 μM O2, 20 μM NADH, 0.1 μM FAD, 100 μg/ml BSA, and 0.3 mM EDTA. TMAO reductase activity was assayed by following the absorbance decrease at 340 nm in a 1.0-ml anaerobic reaction containing 12 U Aspergillus niger glucose oxidase, 5 mM glucose, 260 U catalase, 400 mM TMAO, 100 μM NADH, 0.1 μM FAD, 100 μg/ml BSA, and 0.3 mM EDTA in 90 mM Tris chloride pH 8.2 and incubated at 37 °C. Ngb reductase activity was assayed by following the absorbance increase at 424 nm in a 1.0-ml anaerobic reaction containing 12 U glucose oxidase, 5 mM glucose, 260 U catalase, 5 μM Ngb, 50 μM NADH, 0.1 μM FAD, 100 μg/ml BSA, and 0.3 mM EDTA in 90 mM Tris chloride buffer, pH 8.2, and incubated at 37 °C. Methyl viologen reductase activity was assayed by following the formation of the blue cation radical at 603 nm and by applying an extinction coefficient of 13,300 M^−1 cm^−1 in a 1.0-ml anaerobic reaction buffered with 10 mM potassium phosphate, pH 7.0, and containing 12 U glucose oxidase, 5 mM glucose, 260 U catalase, 100 μM NADH, 0.1 μM FAD, 100 μg/ml BSA, 0.3 mM EDTA, and 200 mM sodium chloride and incubated at 37 °C. NO reductase activity was assayed amperometrically at 37 °C in a 1.0-ml anaerobic reaction containing 2 μM NO, 100 μM NADH, 0.1 μM FAD, 12 U glucose oxidase, 5 mM glucose, 260 U catalase, 100 μg/ml BSA, and 0.3 mM EDTA buffered with 10 mM potassium phosphate pH 7.0. CO effects were tested at a final concentration of 50 μM as diluted from a 1 mM stock in water. All activities are reported relative to the heme content of flavoHb.\nRate constants were estimated from the model kinetic equation using Python programming with successive approximations to optimize fits with varying NO and O2 concentrations. Vmax, K1, K2, KT, and Kii(NO) values were treated as independent variables for a given flavoHb while allowing K3, K4, and Ki(NO) to vary over limited ranges with varying O2 concentration. Kii(NO) was estimated from NO inhibition at saturating O2 concentrations."}, "E. coli flavoHb-NOD [6]": {"biological_target": "E. coli flavoHb-NOD (Escherichia coli, UniProt P24232, K84N)", "details": "1000 U of catalase", "experimental": "as §2"}},
  "data": [
    {"compound": "[C-]#[O+]", "note": "[CO, reference compound]", "values": [
      {"measurement": "inhibition of O2 migration and binding in the slow phase", "setting": "[1]", "result": "~50", "unit": "%"},
      {"measurement": "inhibition of fast phase of O2 rebinding", "setting": "[2]", "result": "~10", "unit": "%"},
      {"measurement": "inhibition of slow phase of O2 rebinding", "setting": "[2]", "result": 86, "unit": "%"},
      {"measurement": "inhibition of O2 migration and binding in the slow phase", "setting": "[3]", "result": "~50", "unit": "%"},
      {"measurement": "inhibition of TMAO reduction", "setting": "TMAO reductase activity", "result": "~90", "unit": "%"},
      {"measurement": "Ki", "setting": "E. coli flavoHb-NOD [4]", "result": "~1000", "unit": "nM"}
    ]},
    {"compound": "OO", "note": "[H2O2]", "values": [
      {"measurement": "effect of H2O2 on flavoHb-NOD activity", "setting": "flavoHb-NOD; 50 or 200 µM H2O2", "result": "sensitive"}
    ]},
    {"compound": "O=O", "note": "[O2]", "values": [
      {"measurement": "inhibition by O2 with respect to NO", "setting": "E. coli flavoHb-NOD [5]", "result": "no competitive inhibition"},
      {"measurement": "selectivity for O2 over N2", "setting": "E. coli flavoHb-NOD [5]", "result": "greater than 80 fold"}
    ]},
    {"compound": "O=C1O[C@H]([C@@H](O)CO)C(O)=C1O", "note": "[ascorbate]", "values": [
      {"measurement": "protection of flavoHb-NOD against H2O2", "setting": "flavoHb-NOD", "result": "protect"}
    ]},
    {"compound": "Clc1ccc(COC(Cn2ccnc2)c2ccc(Cl)cc2Cl)c(Cl)c1", "note": "(stereo not shown) [miconazole]", "values": [
      {"measurement": "protection of flavoHb-NOD against H2O2", "setting": "flavoHb-NOD", "result": "protect"}
    ]},
    {"compound": "Catalase", "values": [
      {"measurement": "protection of AsnF7 NOD activity from inactivation", "setting": "E. coli flavoHb-NOD [6]", "result": "modest protection"}
    ]},
    {"compound": "nitric oxide [NO]", "values": [
      {"measurement": "inhibition of NOD activity by NO", "setting": "E. coli flavoHb-NOD [5]; 1:100 ratio of NO to O2, reversible, competitive with O2", "result": "roughly 50%"}
    ]}
  ]
}
